Data reported in ChEMBL document CHEMBL5331072, “Development of potent and selective FAAH inhibitors with improved drug-like properties as potential tools to treat neuroinflammatory conditions” (Eur J Med Chem, 2023).
≈ marks a conversion by molar mass, not a printed value. Calls of active or inactive are those of the source. The rule behind the calls is not given here.

Assays:
[1] = Cardiotoxicity in Langendorff-perfused Wistar rat heart assessed as effect on QRS interval time at 0.3 uM by ECG analysis (Rvb =13.6+/-0.7 milliseconds); type: toxicity, tissue-based
[2] = Cardiotoxicity in Langendorff-perfused Wistar rat heart assessed as effect on QRS interval time at 10 uM by ECG analysis (Rvb =13.6+/-0.7 milliseconds); type: toxicity, tissue-based
[3] = molecular target: T1, Monoglyceride lipase (Homo sapiens, UniProt Q99685); assay: Inhibition of human recombinant MAGL using 7-hydroxycoumarinyl arachidonate as substrate preincubated for 30 mins followed by substrate addition and measured after 30 mins by multimode plate reader analysis
T1 sequence (Q99685 whole entry): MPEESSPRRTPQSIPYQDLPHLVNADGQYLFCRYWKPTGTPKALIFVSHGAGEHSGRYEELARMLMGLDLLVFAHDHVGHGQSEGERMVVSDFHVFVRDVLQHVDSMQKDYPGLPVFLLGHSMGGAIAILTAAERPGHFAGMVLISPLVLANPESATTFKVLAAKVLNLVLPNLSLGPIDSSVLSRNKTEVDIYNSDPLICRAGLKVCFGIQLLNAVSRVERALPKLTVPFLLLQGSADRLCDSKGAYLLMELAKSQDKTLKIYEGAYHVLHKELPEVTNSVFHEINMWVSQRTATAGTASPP

[4] = Chemical stability of the compound at pH 3 measured for 24 hrs by HPLC analysis; type: physicochemical; conditions: buffer, read-out: Stability
[5] = Cardiotoxicity in Langendorff-perfused Wistar rat heart assessed as effect on heart rate at 30 uM by ECG analysis (reference value: 263.5+/-8.2 bpm); type: toxicity, tissue-based
[6] = Cytotoxicity against mouse NIH3T3 cells assessed as inhibition of cell growth measured for 24 hrs by neutral red uptake assay; type: toxicity, cell-based
[7] = Cardiotoxicity in Langendorff-perfused Wistar rat heart assessed as effect on PQ interval time at 30 uM by ECG analysis (Rvb =40.8+/-2.3 milliseconds); type: toxicity, tissue-based
[8] = system: 1321N1; assay: Cytotoxicity against human 1321N1 cells assessed as inhibition of cell growth at 10 uM measured for 24 hrs by MTT assay; type: functional; set-up: scale not given: the % may be the effect or the level left
[9] = system: 1321N1; assay: Cytotoxicity against human 1321N1 cells assessed as inhibition of cell growth at 10 nM measured for 24 hrs by MTT assay; type: functional; set-up: scale not given: the % may be the effect or the level left
[10] = Cardiotoxicity in Langendorff-perfused Wistar rat heart assessed as effect on RR time at 1 uM by ECG analysis (reference value: 230+/-8.7 milliseconds); type: toxicity, tissue-based
[11] = molecular target: T2, Fatty-acid amide hydrolase 1 (Homo sapiens, UniProt O00519); assay: Inhibition of human recombinant FAAH using AMC-AA as substrate preincubated for 30 mins followed by substrate addition and measured after 30 mins by multimode plate reader analysis
T2 sequence (O00519 whole entry): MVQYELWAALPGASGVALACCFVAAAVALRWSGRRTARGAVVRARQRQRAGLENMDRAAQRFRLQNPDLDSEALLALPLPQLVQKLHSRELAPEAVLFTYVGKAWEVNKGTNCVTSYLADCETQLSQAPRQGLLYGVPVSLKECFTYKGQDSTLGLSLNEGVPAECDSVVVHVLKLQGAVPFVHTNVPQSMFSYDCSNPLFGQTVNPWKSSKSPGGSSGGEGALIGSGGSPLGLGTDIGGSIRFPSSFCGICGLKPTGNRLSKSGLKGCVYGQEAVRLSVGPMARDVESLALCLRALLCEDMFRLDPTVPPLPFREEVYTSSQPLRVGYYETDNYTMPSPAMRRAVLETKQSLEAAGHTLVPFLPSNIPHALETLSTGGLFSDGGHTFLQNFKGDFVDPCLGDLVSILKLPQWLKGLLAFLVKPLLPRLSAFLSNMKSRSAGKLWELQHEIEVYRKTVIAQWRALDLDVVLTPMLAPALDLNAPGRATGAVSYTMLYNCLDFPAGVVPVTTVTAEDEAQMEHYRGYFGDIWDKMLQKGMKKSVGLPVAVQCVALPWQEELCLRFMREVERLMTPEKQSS

[12] = Solubility of compound at pH 7.4 measured for 24 hrs; type: physicochemical; conditions: buffer
[13] = Cardiotoxicity in Langendorff-perfused Wistar rat heart assessed as effect on RR time at 0.3 uM by ECG analysis (reference value: 230+/-8.7 milliseconds); type: toxicity, tissue-based
[14] = system: Hippocampus; assay: Neuroprotective activity against Wistar rat Hippocampus assessed as reduction in LPS/IFN-gamma induced PI uptake in CA1 region at 30 to 100 nM measured for 96 hrs; type: functional, tissue-based; conditions: dose 30-100 nM
[15] = system: 1321N1; assay: Cytotoxicity against human 1321N1 cells assessed as inhibition of cell growth at 1 uM measured for 24 hrs by MTT assay; type: functional; set-up: scale not given: the % may be the effect or the level left
[16] = system: Hippocampus; assay: Neuroprotective activity against Wistar rat Hippocampus assessed as reduction in LPS/IFN-gamma induced PI uptake in CA1 region at 3 to 1000 nM measured for 96 hrs; type: functional, tissue-based; conditions: dose 3-1000 nM
[17] = Cardiotoxicity in Langendorff-perfused Wistar rat heart assessed as effect on QTc interval time at 10 uM by ECG analysis (Rvb =72.1+/-1.4 milliseconds); type: toxicity, tissue-based
[18] = Cardiotoxicity in Langendorff-perfused Wistar rat heart assessed as effect on QTc interval time at 30 uM by ECG analysis (Rvb =72.1+/-1.4 milliseconds); type: toxicity, tissue-based
[19] = system: 1321N1; assay: Antiinflammatory activity against human 1321N1 cells assessed as reduction in TBHP-induced ROS production at 1 uM incubated for 24 hrs by CellROX green reagent based flow cytometry assay; type: functional, cell-based
[20] = Cardiotoxicity in Langendorff-perfused Wistar rat heart assessed as effect on RR time at 10 uM by ECG analysis (reference value: 230+/-8.7 milliseconds); type: toxicity, tissue-based
[21] = system: 1321N1; assay: Antiinflammatory activity against human 1321N1 cells assessed as reduction in TBHP-induced ROS production at 100 nM incubated for 24 hrs by CellROX green reagent based flow cytometry assay; type: functional, cell-based
[22] = Cardiotoxicity in Langendorff-perfused Wistar rat heart assessed as effect on heart rate at 10 uM by ECG analysis (reference value: 263.5+/-8.2 bpm); type: toxicity, tissue-based
[23] = Neurotoxicity against Wistar rat Hippocampus assessed as cell survival at 0.3 to 100 nM measured for 96 hrs by densitometric analysis; type: toxicity, tissue-based; conditions: 0.1 µM, dose 0.3-100 nM
[24] = Cardiotoxicity in Langendorff-perfused Wistar rat heart assessed as effect on QTc interval time at 0.3 uM by ECG analysis (Rvb =72.1+/-1.4 milliseconds); type: toxicity, tissue-based
[25] = Cardiotoxicity in Langendorff-perfused Wistar rat heart assessed as effect on RR time at 30 uM by ECG analysis (reference value: 230+/-8.7 milliseconds); type: toxicity, tissue-based
[26] = Cardiotoxicity in Langendorff-perfused Wistar rat heart assessed as effect on heart rate at 1 uM by ECG analysis (reference value: 263.5+/-8.2 bpm); type: toxicity, tissue-based
[27] = Solubility of compound at pH 3 measured for 24 hrs; type: physicochemical; conditions: buffer
[28] = Cardiotoxicity in Langendorff-perfused Wistar rat heart assessed as effect on heart rate at 0.3 uM by ECG analysis (reference value: 263.5+/-8.2 bpm); type: toxicity, tissue-based
[29] = Chemical stability of the compound at pH 7.4 measured for 24 hrs by HPLC analysis; type: physicochemical; conditions: buffer, read-out: Stability
[30] = Cardiotoxicity in Langendorff-perfused Wistar rat heart assessed as effect on PQ interval time at 10 uM by ECG analysis (Rvb =40.8+/-2.3 milliseconds); type: toxicity, tissue-based
[31] = Cardiotoxicity in Langendorff-perfused Wistar rat heart assessed as effect on QTc interval time at 1 uM by ECG analysis (Rvb =72.1+/-1.4 milliseconds); type: toxicity, tissue-based
[32] = system: 1321N1; assay: Cytotoxicity against human 1321N1 cells assessed as inhibition of cell growth at 100 nM measured for 24 hrs by MTT assay; type: functional; set-up: scale not given: the % may be the effect or the level left
[33] = Cardiotoxicity in Langendorff-perfused Wistar rat heart assessed as effect on QRS interval time at 1 uM by ECG analysis (Rvb =13.6+/-0.7 milliseconds); type: toxicity, tissue-based
[34] = Cardiotoxicity in Langendorff-perfused Wistar rat heart assessed as effect on PQ interval time at 0.3 uM by ECG analysis (Rvb =40.8+/-2.3 milliseconds); type: toxicity, tissue-based
[35] = Cardiotoxicity in Langendorff-perfused Wistar rat heart assessed as effect on QRS interval time at 30 uM by ECG analysis (Rvb =13.6+/-0.7 milliseconds); type: toxicity, tissue-based
[36] = Cardiotoxicity in Langendorff-perfused Wistar rat heart assessed as effect on PQ interval time at 1 uM by ECG analysis (Rvb =40.8+/-2.3 milliseconds); type: toxicity, tissue-based
[37] = system: 1321N1; assay: Cytotoxicity against human 1321N1 cells assessed as inhibition of cell growth at 30 uM measured for 24 hrs by MTT assay; type: functional; set-up: scale not given: the % may be the effect or the level left

NC(=O)c1ccn(-c2cccc(OC(=O)N3CCN(CCCc4ccccc4)CC3)c2)c1
Time [1]: 13.8 ms | Time [2]: 14 ms | IC50 [3]: > 10 µM | remaining at 24 h [4]: > 99% | Activity [5]: 190.2 bpm | IC50 at 24 h [6]: 46 µM | Time [7]: 54.8 ms | Activity [8]: 100% | Activity [9]: 100.5% | Time [10]: 220.2 ms | IC50 [11]: 0.0101 µM | solubility at 24 h [12]: 42 µM (≈ 18.2 µg/mL) | Time [13]: 223.8 ms | Activity [14]: Active | Activity [15]: 100.3% | Activity [16]: Active | Time [17]: 71 ms | Time [18]: 73.5 ms | Activity [19]: Active | Time [20]: 229.8 ms | Activity [21]: Active | Activity [22]: 263.8 bpm | Activity [23]: Non-Toxic | Time [24]: 70.6 ms | Time [25]: 286.4 ms | Activity [26]: 273 bpm | solubility at 24 h [27]: 228 µM (≈ 98.6 µg/mL) | Activity [28]: 270 bpm | remaining at 24 h [29]: > 99% | Time [30]: 41.2 ms | Time [31]: 70.6 ms | Activity [32]: 99.5% | Time [33]: 13.8 ms | Time [34]: 39.2 ms | Time [35]: 14.6 ms | Time [36]: 40.6 ms | Activity [37]: 101.5%
